Test results published in article PMC5487684, “Safety, Pharmacokinetics, and Antiviral Activity of a Novel HIV Antiviral, ABX464, in Treatment-Naive HIV-Infected Subjects in a Phase 2 Randomized, Controlled Study” (Antimicrobial Agents and Chemotherapy, 2017).
“Also recorded” adds a separate entry of the source.

Experiments:
[1] = cited from earlier work
healthy subjects = conditions: cited from earlier work
HIV = HIV viral load (HIV-1 RNA copies per milliliter) in treatment-naive HIV-infected patients; format: in vivo
Description: Safety assessments and laboratory tests were carried out according to the schedules described in Table S4 for groups dosed every day, every 3 days, and 3 times a day. Follow-up visits were scheduled for 7 days after the last dose and subsequently once every week in order to assess the elimination of the main ABX464 metabolite and to assess the viral load. Follow-up visits were terminated when the virus load was within 0.5 log of the baseline value or after 3 follow-up visits, whichever came first. Prior to the statistical analyses, AEs were coded using the Medical Dictionary for Regulatory Activities (MedDRA dictionary; last available version) in order to be tabulated by system organ class (SOC) and preferred term (PT). The AEs were analyzed according to the treatment emergence phase from the first study drug administration on day 1 up to 48 h after the last study drug administration. The number and percentage of subjects with at least one TEAE were tabulated by SOC and PT for each group and dose. The number of occurrences of TEAEs was also analyzed in the same way by SOC and PT for each group and dose, by grade of severity for each group and dose, and by level of causality to the study drug for each group and dose.
Plasma samples were analyzed for ABX464 and ABX464-NGlc using validated bioanalytical methods by Atlanbio (Saint Nazaire, France) according to good laboratory practices. Pharmacokinetic parameters were calculated by noncompartmental analysis (NCA), using Phoenix WinNonlin software (Pharsight Corporation) running on a personal computer. On day 1, the following PK parameters were generated: Cmax, the time to Cmax (Tmax), lag time (tlag), elimination rate constant (kel), area under the concentration-time curve (AUC) from time zero to time t (AUC0–t), AUC from time zero to infinity (AUC0–∞), apparent clearance (CL/F), and apparent volume of distribution (V/F). On the other days of PK assessment, only Cmax, Tmax, tlag, kel, and AUC0–t were generated. The secondary analysis concerned pharmacodynamic (PD) activity, as expressed by CD4 and CD8 levels and viral load across time. The HIV viral load was analyzed in the prequalified individual local study center laboratories. CD4 and CD8 cell counts were also determined in the local study center laboratories. With respect to the viral load, changes in the log-transformed viral load values between 24 h postdose and predose were calculated on each day, and a comparison between each dose level and pooled placebo data was made. Moreover, the rate of success (defined as a decrease in the viral load value of at least 0.5 log) was evaluated for each treatment (including placebo) and compared between treatments.
No formal sample size determination was done. The aim of the study was to obtain reliable and consistent data and to expose a limited number of subjects to ABX464. To achieve this aim, six subjects per group received ABX464. A mixed model analysis of covariance of the changes in the viral load compared to that at the baseline was conducted on log-transformed values. Baseline parameters and age were covariates, treatment groups were fixed effects, and subjects were random effects.

[2] = Non-infected, single oral 50mg (fasted), N 17
[3] = Non-infected, single oral 50mg (fasted), N 23

FC(F)(F)Oc1ccc(Nc2ccc3cccc(Cl)c3n2)cc1 [ABX464]
AUC0-∞, GM [1, 2]: 43.93 ng·h/mL
AUC0-∞, Mean [1, 2]: 51.74 ng·h/mL
t1/2, GM [1, 2]: 49.8 min
t1/2, Mean [1, 2]: 52.8 min
Cmax, GM [1, 3]: 13.70 ng/mL
Cmax, Mean [1, 3]: 17.70 ng/mL
tmax, Mean [1, 3]: 90 min
Metabolism in human subjects ([1]; healthy subjects, single ascending oral dose): rapidly and substantially metabolized into ABX464-N-glucuronide
Tolerability in healthy volunteers, food effect and repeated dosing study (healthy subjects): good tolerability profile
Tolerability in healthy subjects, first-in-human study (healthy subjects; single ascending oral dose, up to 150 mg): very well tolerated; also recorded: well tolerated
Subjects demonstrating an antiviral response (HIV; 75 mg once a day): 16%
Subjects demonstrating an antiviral response (HIV; 100 mg once a day): 33%
Subjects demonstrating an antiviral response (HIV; 150 mg once a day): 66%
Mixed model analysis, RNA viral load Day 2 to Day 14, Treatment Group Estimate (HIV; ABX464 150 mg once a day vs. Placebo): -0.1559
Measurements demonstrating a 0.5 log10 decrease over the treatment period (HIV; ABX464-treated subjects): 49 measurements
Change in log10 no. of RNA copies/ml from that at the baseline (HIV; Group 1 (25 mg every 3 days, fasted), subject 102, day 4): −0.99 log10 no. of RNA copies/ml
Change in log10 no. of RNA copies/ml from that at the baseline (HIV; Group 1 (25 mg every 3 days, fasted), subject 102, day 5): −1.47 log10 no. of RNA copies/ml
Change in log10 no. of RNA copies/ml from that at the baseline (HIV; Group 1 (25 mg every 3 days, fasted), subject 102, day 7): −1.36 log10 no. of RNA copies/ml
Change in log10 no. of RNA copies/ml from that at the baseline (HIV; Group 1 (25 mg every 3 days, fasted), subject 102, day 8): −1.57 log10 no. of RNA copies/ml
Change in log10 no. of RNA copies/ml from that at the baseline (HIV; Group 1 (25 mg every 3 days, fasted), subject 102, day 10): −1.43 log10 no. of RNA copies/ml
Change in log10 no. of RNA copies/ml from that at the baseline (HIV; Group 1 (25 mg every 3 days, fasted), subject 102, day 11): −1.61 log10 no. of RNA copies/ml
Change in log10 no. of RNA copies/ml from that at the baseline (HIV; Group 1 (25 mg every 3 days, fasted), subject 102, day 13): −1.4 log10 no. of RNA copies/ml
Change in log10 no. of RNA copies/ml from that at the baseline (HIV; Group 1 (25 mg every 3 days, fasted), subject 102, day 14): −1.51 log10 no. of RNA copies/ml
Change in log10 no. of RNA copies/ml from that at the baseline (HIV; Group 1 (25 mg every 3 days, fasted), subject 105, day 14): −0.5 log10 no. of RNA copies/ml
Change in log10 no. of RNA copies/ml from that at the baseline (HIV; Group 1 (25 mg every 3 days, fasted), subject 105, day 16): −0.52 log10 no. of RNA copies/ml
Change in log10 no. of RNA copies/ml from that at the baseline (HIV; Group 1 (25 mg every 3 days, fasted), subject 105, day 17): −0.65 log10 no. of RNA copies/ml
Change in log10 no. of RNA copies/ml from that at the baseline (HIV; Group 1 (25 mg every 3 days, fasted), subject 106, day 5): −0.72 log10 no. of RNA copies/ml
Change in log10 no. of RNA copies/ml from that at the baseline (HIV; Group 1 (25 mg every 3 days, fasted), subject 106, day 11): −0.56 log10 no. of RNA copies/ml
Change in log10 no. of RNA copies/ml from that at the baseline (HIV; Group 1 (25 mg every 3 days, fasted), subject 106, day 13): −0.62 log10 no. of RNA copies/ml
Change in log10 no. of RNA copies/ml from that at the baseline (HIV; Group 1 (25 mg every 3 days, fasted), subject 106, day 16): −0.74 log10 no. of RNA copies/ml
Change in log10 no. of RNA copies/ml from that at the baseline (HIV; Group 1 (25 mg every 3 days, fasted), subject 106, day 17): −0.51 log10 no. of RNA copies/ml
Change in log10 no. of RNA copies/ml from that at the baseline (HIV; Group 1 (25 mg every 3 days, fasted), subject 106, day 19): −0.61 log10 no. of RNA copies/ml
Change in log10 no. of RNA copies/ml from that at the baseline (HIV; Group 2 (25 mg q.d., fasted), subject 201, day 14): −0.54 log10 no. of RNA copies/ml
Change in log10 no. of RNA copies/ml from that at the baseline (HIV; Group 4 (50 mg t.i.d., fed), subject 2007, day 10): −0.62 log10 no. of RNA copies/ml
Change in log10 no. of RNA copies/ml from that at the baseline (HIV; Group 4 (50 mg t.i.d., fed), subject 2009, day 10): −0.72 log10 no. of RNA copies/ml
Change in log10 no. of RNA copies/ml from that at the baseline (HIV; Group 4 (50 mg t.i.d., fed), subject 2009, day 14): −1.23 log10 no. of RNA copies/ml
Change in log10 no. of RNA copies/ml from that at the baseline (HIV; Group 4 (50 mg t.i.d., fed), subject 2009, day 18): −1.39 log10 no. of RNA copies/ml
Change in log10 no. of RNA copies/ml from that at the baseline (HIV; Group 5 (75 mg q.d., fed), subject 605, day 2): −0.71 log10 no. of RNA copies/ml
Change in log10 no. of RNA copies/ml from that at the baseline (HIV; Group 5 (75 mg q.d., fed), subject 605, day 4): −0.77 log10 no. of RNA copies/ml
Change in log10 no. of RNA copies/ml from that at the baseline (HIV; Group 5 (75 mg q.d., fed), subject 605, day 5): −0.76 log10 no. of RNA copies/ml
Change in log10 no. of RNA copies/ml from that at the baseline (HIV; Group 5 (75 mg q.d., fed), subject 605, day 7): −0.89 log10 no. of RNA copies/ml
Change in log10 no. of RNA copies/ml from that at the baseline (HIV; Group 5 (75 mg q.d., fed), subject 605, day 8): −0.83 log10 no. of RNA copies/ml
Change in log10 no. of RNA copies/ml from that at the baseline (HIV; Group 5 (75 mg q.d., fed), subject 605, day 10): −1.06 log10 no. of RNA copies/ml
Change in log10 no. of RNA copies/ml from that at the baseline (HIV; Group 5 (75 mg q.d., fed), subject 605, day 11): −1.05 log10 no. of RNA copies/ml
Change in log10 no. of RNA copies/ml from that at the baseline (HIV; Group 6 (100 mg q.d., fasted), subject 804, day 11): −0.52 log10 no. of RNA copies/ml
